Tests used:
Rice = test: Foliar treatment of rice; type: in vivo; conditions: foliar 10^−6 M with 0.05% Silwet L-77; for shoot length: FIG. 12A
Protocol: Rice seeds were surface sterilized using 2% bleach. Seeds were then germinated on damp germination paper in sterile Petri dishes for 5 days. The seedlings were then transferred to Fahraeus medium plates containing damp germination paper. The plates were wrapped in Parafilm®, and the roots part of the plate covered with aluminum foil.
The plants were grown at room temperature under continuous light for 21 days. The plants were then transferred to moistened SUNGRO® soil pots (8×8×10 cm) and grown for 3 days under greenhouse condition. The plants were hydrated by pouring water into the tray underneath the pots.
The soil surface was then covered with plastic wrap to prevent any liquid droplets from contacting the soil. Using painting brushes, the front, and back of the plant leaves were treated with 3 ml of chitin derived compounds (CO4 and CO8) at 10^−6 M or a control (0.5% ethanol), each including 0.05% of Silwet L-77 (surfactant). Eleven plants were treated with each solution. The plants were subsequently grown for 14 days, and the shoot length was measured. Once a week, half-strength Hoagland solution was added into the trays underneath the pots. The plants were grown for another 4 days, and the lengths of the shoot and root systems were measured.

[1] = tested on: rice trichoblasts (root hair cells); test: Calcium spiking (YC3.6 imaging) in rice trichoblasts (root hair cells); type: cell-based, Oryza sativa cv Nipponbare; conditions: 10^−5 M, FIG. 5, FIG. 6
Protocol: Mycorrhizal induced calcium responses were measured as described previously (14). Transgenic Oryza sativa Nipponbare lines carrying Yellow Cameleon 3.6 (YC3.6) FRET-based calcium sensor was used to detect calcium spiking. YC3.6 was imaged on a Nikon Eclipse Ti inverted microscope (Nikon, Japan) equipped with an OptoLED Illuminator (model OptoLED, Cairn Research Ltd, UK). YC3.6 was excited at a wavelength of 455 nm using a royal blue LED and was captured with a charge-coupled device (CCD) camera (model RETIGA-SRV, Qimaging, Canada). Emitted fluorescence was separated by an image splitter with a dichroic mirror (model Optosplit II, Cairn Research Ltd, UK) and then passed through a fluorescence filter set. Images were collected every 5 seconds with 1-second exposure and analyzed using MetaFluor (Molecular Devices, Sunnyvale, Calif., USA).
Both LCOs and COs are Required to Induce Calcium Spiking in Trichoblasts. Rhizobia colonize legumes by root hair cells (trichoblasts), whereas AM fungi colonize roots via non-root hair epidermal cells (atrichoblasts). Thus, these different root epidermal cell types may respond differently to COs and LCOs. To test this, we directly compared trichoblast and atrichoblast responses using high concentrations of CO4 in rice. Calcium oscillations observed in rice following treatments of CO4 were restricted to atrichoblasts, with no responses in trichoblasts even with CO4 treatments of 10^−5 M (FIG. 5). This preferential nature of rice atrichoblasts to respond to the AM signals is consistent with a preference for AM fungi to colonize the root via atrichoblasts (26). It is possible that either AM fungi produce signalling molecules other than S-LCO, NS-LCO and CO4 that induce calcium oscillations in rice trichoblasts, or that the mix of signalling molecules is important. To test this, we assessed induction of calcium oscillations by an equimolar mix of 10^−5 M S-LCO, NS-LCO, and CO4.

M. truncatula = test: Lateral root emergence in M. truncatula; type: in vivo, Medicago truncatula; conditions: 10^−7 M; fold induction relative to the control; FIG. 7
Protocol: M. truncatula roots were treated with 10^−7 M CO4 or 10^−7 M NS-LCO and the effect on lateral root emergence was measured. The numbers in parentheses indicate the number of plants analyzed. The significance of the difference to the […] control plants, as measured using a t-test, is indicated. The treatments are measured as fold induction relative to the control. Error bars represent the standard error.
Accordingly, the disclosed method is limited in scope to treating non-leguminous plants, or seeds, seedlings or plant parts thereof.

[2] = tested on: pea (the legume Pisum sativum); test: Seed treatment of pea in pots; type: in vivo; conditions: seed coating 125 μl of 10^−6 M, 2 weeks after planting, * significant at P < 0.05
Protocol: Five grams of pea seeds (the legume Pisum sativum) were added to three separate 50 ml tubes. A water solution containing 0.5% ethanol was added to the control tube, 125 μl of 10^−6M CO4 solution was added to the CO4 tube, and 125 μl of 10^−6 M CO8 solution was added to the CO8 tube. Each tube was then shaken to coat the seeds. Seeds were potted immediately following treatment into moistened SUNGRO® potting mix in 4×6×6 cm pots. Plants were watered by pouring water into the tray containing the pots up to about ¾ inch high. After sowing the seeds, the pots were randomly distributed (16 pots per treatment) throughout the tray and placed underneath continuous light at room temperature for 1 week. Liquid Fahräeus medium (plant fertilizer solution; see above) was applied every 2 days or when necessary. After a week, the pots were placed underneath 10 h light and 14 h dark cycle at room temperature for 1 week. After 1 week underneath 10 h light and 14 h dark cycle (2 weeks after planting), the plants were carefully removed from the pots, and as much soil as possible was shaken off. The remaining soil was removed by submerging the root system into a beaker of water. The number of primary roots (PR), lateral roots (LR), root system length (RSL) and dry weight (DW) were then measured for all plants.

Structure (SMILES) | shoot length (Rice; day 14 after treatment) | shoot length (Rice; day 18 after treatment) | root system length (Rice; day 18 after treatment, FIG. 12B) | calcium spiking in trichoblasts [1] | lateral root emergence (M. truncatula) | Average Lateral Roots [2] | Average Primary Roots [2]
CC(=O)N[C@H]1[C@H](O[C@H]2[C@H](O)[C@@H](NC(C)=O)C(O)O[C@@H]2CO)O[C@H](CO)[C@@H](O[C@@H]2O[C@H](CO)[C@@H](O[C@@H]3O[C@H](CO)[C@@H](O)[C@H](O)[C@H]3NC(C)=O)[C@H](O)[C@H]2NC(C)=O)[C@@H]1O (stereo partly shown) [CO4, tetra-N-acetylchitotetraose] | significantly increased | significance was even higher | significantly promoted | no responses | could not induce lateral root emergence |  | 
CC(=O)N[C@H]1[C@H](O[C@H]2[C@H](O)[C@@H](NC(C)=O)[C@H](O[C@H]3[C@H](O)[C@@H](NC(C)=O)[C@H](O[C@H]4[C@H](O)[C@@H](NC(C)=O)C(O)O[C@@H]4CO)O[C@@H]3CO)O[C@@H]2CO)O[C@H](CO)[C@@H](O[C@@H]2O[C@H](CO)[C@@H](O[C@@H]3O[C@H](CO)[C@@H](O[C@@H]4O[C@H](CO)[C@@H](O[C@@H]5O[C@H](CO)[C@@H](O)[C@H](O)[C@H]5NC(C)=O)[C@H](O)[C@H]4NC(C)=O)[C@H](O)[C@H]3NC(C)=O)[C@H](O)[C@H]2NC(C)=O)[C@@H]1O (stereo partly shown) [CO8, octa-N-acetyl-chitooctaose] |  |  |  |  |  | significantly decreased | significantly decreased
